From patent US6770596B1, “Fused tricyclic compounds, process for their preparation, and herbicidal compositions containing them” (Ishihara Sangyo Kaisha Ltd., priority 2002, dated 2004)

Key:
Format in all cases: in vivo
[1] = tested on: field corn (Zea mays L., var. Dekalb 535, CORN); test: Post-emerge test, crop damage field corn; conditions: post-emerge, 250 g ai/ha, 14 days after application, rating scale 0-100 (0 no damage, 100 complete death)
How it was run: (§1)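 Emerged seedlings, usually at 2-3 leaves after 8-21 days' growth in sandy loam, were treated with 8-1000 g ai/ha. Treatment was an acetone spray at 187 l/ha containing 0.25% v/v non-ionic surfactant. Assessment at 14 days used a 0 (no damage) to 100 (total death) scale.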

[2] = tested on: velvetleaf (Abutilon theophrasti, ABT); test: Pre-emerge test, velvetleaf; conditions: 250 g ai/ha, 14 days after application, rating scale 0-100 (0 no damage, 100 complete death)
How it was run: (§2)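 Seeds sown in sandy loam in 10 cm pots one day before pre-emergence spraying of acetone-dissolved compounds at 8–1000 g ai/ha (187 l/ha, track sprayer), greenhouse. Phytotoxicity rated visually 14 days after application on a 0–100 scale (0 no damage, 100 complete death).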

[3] = tested on: common ragweed (Ambrosia artemisiifolia L., AML); test: Pre-emerge test, common ragweed; conditions: 250 g ai/ha, 14 days after application, rating scale 0-100 (0 no damage, 100 complete death)
How it was run: as §2

[4] = tested on: sicklepod (Cassia obtusifolia, CAO); test: Pre-emerge test, sicklepod; conditions: 250 g ai/ha, 14 days after application, rating scale 0-100 (0 no damage, 100 complete death)
How it was run: as §2

[5] = tested on: redroot pigweed (Amaranthus retroflexus, AMR); test: Pre-emerge test, redroot pigweed; conditions: 250 g ai/ha, 14 days after application, rating scale 0-100 (0 no damage, 100 complete death)
How it was run: as §2

[6] = tested on: large crabgrass (Digitaria sanguinalis, DIS); test: Pre-emerge test, large crabgrass; conditions: 250 g ai/ha, 14 days after application, rating scale 0-100 (0 no damage, 100 complete death)
How it was run: as §2

[7] = tested on: ivyleaf morningglory (Ipomoea hederacea, IPH); test: Pre-emerge test, ivyleaf morningglory; conditions: 250 g ai/ha, 14 days after application, rating scale 0-100 (0 no damage, 100 complete death)
How it was run: as §2

[8] = tested on: ivyleaf morningglory (Ipomoea hederacea, IPH); test: Post-emerge test, ivyleaf morningglory; conditions: 250 g ai/ha, 14 days after application, rating scale 0-100 (0 no damage, 100 complete death)
How it was run: as §1

[9] = tested on: velvetleaf (Abutilon theophrasti, ABT); test: Post-emerge test, velvetleaf; conditions: 250 g ai/ha, 14 days after application, rating scale 0-100 (0 no damage, 100 complete death)
How it was run: as §1

[10] = tested on: redroot pigweed (Amaranthus retroflexus, AMR); test: Post-emerge test, redroot pigweed; conditions: 250 g ai/ha, 14 days after application, rating scale 0-100 (0 no damage, 100 complete death)
How it was run: as §1

[11] = tested on: cocklebur (Xanthium strumariunt, XAS); test: Post-emerge test, cocklebur; conditions: 250 g ai/ha, 14 days after application, rating scale 0-100 (0 no damage, 100 complete death)
How it was run: as §1

[12] = tested on: wheat (Triticum aestivum); test: Post-emerge test, crop damage wheat; conditions: post-emerge, 250 g ai/ha, 14 days after application, rating scale 0-100 (0 no damage, 100 complete death)
How it was run: as §1

[13] = tested on: large crabgrass (Digitaria sanguinalis, DIS); test: Post-emerge test, large crabgrass; conditions: 250 g ai/ha, 14 days after application, rating scale 0-100 (0 no damage, 100 complete death)
How it was run: as §1

[14] = tested on: green foxtail (Setaria viridis, SEV); test: Pre-emerge test, green foxtail; conditions: 250 g ai/ha, 14 days after application, rating scale 0-100 (0 no damage, 100 complete death)
How it was run: as §2

[15] = tested on: barnyardgrass (Echinachloa crus-galli, ECC); test: Post-emerge test, barnyardgrass; conditions: 250 g ai/ha, 14 days after application, rating scale 0-100 (0 no damage, 100 complete death)
How it was run: as §1

[16] = tested on: sicklepod (Cassia obtusifolia, CAO); test: Post-emerge test, sicklepod; conditions: 250 g ai/ha, 14 days after application, rating scale 0-100 (0 no damage, 100 complete death)
How it was run: as §1

[17] = tested on: soybean (Glycine max L., var. Pella 86, SOY); test: Post-emerge test, crop damage soybean; conditions: post-emerge, 250 g ai/ha, 14 days after application, rating scale 0-100 (0 no damage, 100 complete death)
How it was run: as §1

[18] = tested on: johnsongrass (Sorghum halepense, SOH); test: Post-emerge test, johnsongrass; conditions: 250 g ai/ha, 14 days after application, rating scale 0-100 (0 no damage, 100 complete death)
How it was run: as §1

[19] = tested on: field corn (Zea mays L., var. Dekalb 535, CORN); test: Pre-emerge test, crop damage field corn; conditions: pre-emerge, 250 g ai/ha, 14 days after application, rating scale 0-100 (0 no damage, 100 complete death)
How it was run: (§3)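 Greenhouse pre-emergence screen: track-sprayer application of compounds in acetone at 187 l/ha, rates 8 g ai/ha to 1000 g ai/ha, one day after planting in sandy loam pots. Damage scored at 14 days, 0 (none) to 100 (all plants dead).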

[20] = tested on: upland rice (Oryza sp., var.Tebonnet, RICE); test: Pre-emerge test, crop damage upland rice; conditions: pre-emerge, 250 g ai/ha, 14 days after application, rating scale 0-100 (0 no damage, 100 complete death)
How it was run: as §3

[21] = tested on: common ragweed (Ambrosia artemisiifolia L., AML); test: Post-emerge test, common ragweed; conditions: 250 g ai/ha, 14 days after application, rating scale 0-100 (0 no damage, 100 complete death)
How it was run: as §1

[22] = tested on: cocklebur (Xanthium strumariunt, XAS); test: Pre-emerge test, cocklebur; conditions: 250 g ai/ha, 14 days after application, rating scale 0-100 (0 no damage, 100 complete death)
How it was run: as §2

[23] = tested on: johnsongrass (Sorghum halepense, SOH); test: Pre-emerge test, johnsongrass; conditions: 250 g ai/ha, 14 days after application, rating scale 0-100 (0 no damage, 100 complete death)
How it was run: as §2

[24] = tested on: barnyardgrass (Echinachloa crus-galli, ECC); test: Pre-emerge test, barnyardgrass; conditions: 250 g ai/ha, 14 days after application, rating scale 0-100 (0 no damage, 100 complete death)
How it was run: as §2

[25] = tested on: soybean (Glycine max L., var. Pella 86, SOY); test: Pre-emerge test, crop damage soybean; conditions: pre-emerge, 250 g ai/ha, 14 days after application, rating scale 0-100 (0 no damage, 100 complete death)
How it was run: as §3

[26] = tested on: lambsquarters (Chenopodium album, CHA); test: Pre-emerge test, lambsquarters; conditions: 250 g ai/ha, 14 days after application, rating scale 0-100 (0 no damage, 100 complete death)
How it was run: as §2

[27] = tested on: wheat (Triticum aestivum); test: Pre-emerge test, crop damage wheat; conditions: pre-emerge, 250 g ai/ha, 14 days after application, rating scale 0-100 (0 no damage, 100 complete death)
How it was run: as §3

[28] = tested on: upland rice (Oryza sp., var.Tebonnet, RICE); test: Post-emerge test, crop damage upland rice; conditions: post-emerge, 250 g ai/ha, 14 days after application, rating scale 0-100 (0 no damage, 100 complete death)
How it was run: as §1

[29] = tested on: lambsquarters (Chenopodium album, CHA); test: Post-emerge test, lambsquarters; conditions: 250 g ai/ha, 14 days after application, rating scale 0-100 (0 no damage, 100 complete death)
How it was run: as §1

[30] = tested on: green foxtail (Setaria viridis, SEV); test: Post-emerge test, green foxtail; conditions: 250 g ai/ha, 14 days after application, rating scale 0-100 (0 no damage, 100 complete death)
How it was run: as §1

Structure (SMILES): Cc1nn(-c2c(F)cc3c4c2NC(=O)C(C)N4C(=O)CO3)c(=O)n1C(F)F (stereo not drawn) [1-74]
- Post-emerge crop damage CORN (phytotoxicity rating) [1]: 0
- Pre-emerge Herbicidal Activity ABT (phytotoxicity rating) [2]: 100
- Pre-emerge Herbicidal Activity AML (phytotoxicity rating) [3]: 80
- Pre-emerge Herbicidal Activity CAO (phytotoxicity rating) [4]: 75
- Pre-emerge Herbicidal Activity AMR (phytotoxicity rating) [5]: 98
- Pre-emerge Herbicidal Activity DIS (phytotoxicity rating) [6]: 99
- Pre-emerge Herbicidal Activity IPH (phytotoxicity rating) [7]: 95
- Post-emerge Herbicidal Activity IPH (phytotoxicity rating) [8]: 0
- Post-emerge Herbicidal Activity ABT (phytotoxicity rating) [9]: 55
- Post-emerge Herbicidal Activity AMR (phytotoxicity rating) [10]: 60
- Post-emerge Herbicidal Activity XAS (phytotoxicity rating) [11]: 10
- Post-emerge crop damage WHEAT (phytotoxicity rating) [12]: 0
- Post-emerge Herbicidal Activity DIS (phytotoxicity rating) [13]: 0
- Pre-emerge Herbicidal Activity SEV (phytotoxicity rating) [14]: 100
- Post-emerge Herbicidal Activity ECC (phytotoxicity rating) [15]: 0
- Post-emerge Herbicidal Activity CAO (phytotoxicity rating) [16]: 0
- Post-emerge crop damage SOY (phytotoxicity rating) [17]: 0
- Post-emerge Herbicidal Activity SOH (phytotoxicity rating) [18]: 0
- Pre-emerge crop damage CORN (phytotoxicity rating) [19]: 100
- Pre-emerge crop damage RICE (phytotoxicity rating) [20]: 99
- Post-emerge Herbicidal Activity AML (phytotoxicity rating) [21]: 55
- Pre-emerge Herbicidal Activity XAS (phytotoxicity rating) [22]: 98
- Pre-emerge Herbicidal Activity SOH (phytotoxicity rating) [23]: 99
- Pre-emerge Herbicidal Activity ECC (phytotoxicity rating) [24]: 98
- Pre-emerge crop damage SOY (phytotoxicity rating) [25]: 95
- Pre-emerge Herbicidal Activity CHA (phytotoxicity rating) [26]: 99
- Pre-emerge crop damage WHEAT (phytotoxicity rating) [27]: 98
- Post-emerge crop damage RICE (phytotoxicity rating) [28]: 0
- Post-emerge Herbicidal Activity CHA (phytotoxicity rating) [29]: 65
- Post-emerge Herbicidal Activity SEV (phytotoxicity rating) [30]: 65

Structure (SMILES): CCC1C(=O)Nc2c3c(cc(F)c2-n2nc(C)n(C(F)F)c2=O)OCC(=O)N31 (stereo not drawn) [1-75]
- Post-emerge crop damage CORN (phytotoxicity rating) [1]: 0
- Pre-emerge Herbicidal Activity ABT (phytotoxicity rating) [2]: 100
- Pre-emerge Herbicidal Activity AML (phytotoxicity rating) [3]: 85
- Pre-emerge Herbicidal Activity CAO (phytotoxicity rating) [4]: 65
- Pre-emerge Herbicidal Activity AMR (phytotoxicity rating) [5]: 50
- Pre-emerge Herbicidal Activity DIS (phytotoxicity rating) [6]: 100
- Pre-emerge Herbicidal Activity IPH (phytotoxicity rating) [7]: 99
- Post-emerge Herbicidal Activity IPH (phytotoxicity rating) [8]: 80
- Post-emerge Herbicidal Activity ABT (phytotoxicity rating) [9]: 90
- Post-emerge Herbicidal Activity AMR (phytotoxicity rating) [10]: 0
- Post-emerge Herbicidal Activity XAS (phytotoxicity rating) [11]: 20
- Post-emerge crop damage WHEAT (phytotoxicity rating) [12]: 0
- Post-emerge Herbicidal Activity DIS (phytotoxicity rating) [13]: 0
- Pre-emerge Herbicidal Activity SEV (phytotoxicity rating) [14]: 99
- Post-emerge Herbicidal Activity ECC (phytotoxicity rating) [15]: 0
- Post-emerge Herbicidal Activity CAO (phytotoxicity rating) [16]: 0
- Post-emerge crop damage SOY (phytotoxicity rating) [17]: 55
- Post-emerge Herbicidal Activity SOH (phytotoxicity rating) [18]: 0
- Pre-emerge crop damage CORN (phytotoxicity rating) [19]: 100
- Pre-emerge crop damage RICE (phytotoxicity rating) [20]: 99
- Post-emerge Herbicidal Activity AML (phytotoxicity rating) [21]: 45
- Pre-emerge Herbicidal Activity XAS (phytotoxicity rating) [22]: 85
- Pre-emerge Herbicidal Activity SOH (phytotoxicity rating) [23]: 100
- Pre-emerge Herbicidal Activity ECC (phytotoxicity rating) [24]: 100
- Pre-emerge crop damage SOY (phytotoxicity rating) [25]: 98
- Pre-emerge Herbicidal Activity CHA (phytotoxicity rating) [26]: 100
- Pre-emerge crop damage WHEAT (phytotoxicity rating) [27]: 10
- Post-emerge crop damage RICE (phytotoxicity rating) [28]: 40
- Post-emerge Herbicidal Activity CHA (phytotoxicity rating) [29]: 80
- Post-emerge Herbicidal Activity SEV (phytotoxicity rating) [30]: 0

Structure (SMILES): O=C1CN2C(=O)COc3cc(F)c(-n4nnn(CCCF)c4=O)c(c32)N1 [1-76]
- Post-emerge crop damage CORN (phytotoxicity rating) [1]: 0
- Pre-emerge Herbicidal Activity ABT (phytotoxicity rating) [2]: 55
- Pre-emerge Herbicidal Activity AML (phytotoxicity rating) [3]: 55
- Pre-emerge Herbicidal Activity CAO (phytotoxicity rating) [4]: 45
- Pre-emerge Herbicidal Activity AMR (phytotoxicity rating) [5]: 65
- Pre-emerge Herbicidal Activity DIS (phytotoxicity rating) [6]: 25
- Pre-emerge Herbicidal Activity IPH (phytotoxicity rating) [7]: 25
- Post-emerge Herbicidal Activity IPH (phytotoxicity rating) [8]: 0
- Post-emerge Herbicidal Activity ABT (phytotoxicity rating) [9]: 0
- Post-emerge Herbicidal Activity AMR (phytotoxicity rating) [10]: 0
- Post-emerge Herbicidal Activity XAS (phytotoxicity rating) [11]: 0
- Post-emerge crop damage WHEAT (phytotoxicity rating) [12]: 0
- Post-emerge Herbicidal Activity DIS (phytotoxicity rating) [13]: 0
- Pre-emerge Herbicidal Activity SEV (phytotoxicity rating) [14]: 0
- Post-emerge Herbicidal Activity ECC (phytotoxicity rating) [15]: 0
- Post-emerge Herbicidal Activity CAO (phytotoxicity rating) [16]: 0
- Post-emerge crop damage SOY (phytotoxicity rating) [17]: 0
- Post-emerge Herbicidal Activity SOH (phytotoxicity rating) [18]: 0
- Pre-emerge crop damage CORN (phytotoxicity rating) [19]: 5
- Pre-emerge crop damage RICE (phytotoxicity rating) [20]: 10
- Post-emerge Herbicidal Activity AML (phytotoxicity rating) [21]: 0
- Pre-emerge Herbicidal Activity XAS (phytotoxicity rating) [22]: 60
- Pre-emerge Herbicidal Activity SOH (phytotoxicity rating) [23]: 35
- Pre-emerge Herbicidal Activity ECC (phytotoxicity rating) [24]: 35
- Pre-emerge crop damage SOY (phytotoxicity rating) [25]: 0
- Pre-emerge Herbicidal Activity CHA (phytotoxicity rating) [26]: 98
- Pre-emerge crop damage WHEAT (phytotoxicity rating) [27]: 0
- Post-emerge crop damage RICE (phytotoxicity rating) [28]: 0
- Post-emerge Herbicidal Activity CHA (phytotoxicity rating) [29]: 0
- Post-emerge Herbicidal Activity SEV (phytotoxicity rating) [30]: 0
